One test concerns MYB mRNA. The test is described as follows: Splicing RT-qPCR assay, MYB canonical (CJ) and alternative (AJ) junction mRNA. The settings on record: Homo sapiens, A673 or K562 cells, 24 hours; for IC50: decrease in canonical junction mRNA; for AC50: increase in alternative junction mRNA. The class given is cell-based. The essentials:
(§1)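 Splice switching was scored by qPCR detection of the new alternative-exon junction (AJ) alongside the canonical junction (CJ). Cell lines A673 or K562 received compound 24 h, top dose 10 uM final.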
For orientation: Quantitative PCR measures a nucleic acid by following its amplification.

Test [1] relates to HTT mRNA. The test is described as follows: Gene panel canonical junction qPCR assay, HTT CJ mRNA decrease. As to conditions: Homo sapiens, canonical junction qPCR, read-out: HTT IC50 (decrease in CJ mRNA levels). The class given is cell-based, human. In short, it runs like this:
(§2)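 IC50 values describe loss of canonical-junction transcript, fitted by 4-parameter logistic to percent response derived from fixed ΔCt windows. Read-out: RT-qPCR on lysates of compound-treated K562 or A673 cells, probes overlapping the exon junction, ΔΔCt versus housekeeping gene and DMSO control.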

Another test concerns Target C mRNA. Briefly: Gene panel canonical junction qPCR assay, Target C CJ mRNA decrease. As to conditions: Homo sapiens, canonical junction qPCR, read-out: Target C IC50 (decrease in CJ mRNA levels). The class given is cell-based. The essentials:
as §2

Test [2] has as its system HTT mRNA. Briefly: Splicing RT-qPCR assay, HTT canonical (CJ) and alternative (AJ) junction mRNA. The class given is cell-based. The settings on record: Homo sapiens, A673 or K562 cells, 24 hours; for IC50: decrease in canonical junction mRNA; for AC50: increase in alternative junction mRNA. In short, it runs like this:
as §1

A value given as a limit tells only on which side of the number the result lay.

For orientation: IC50 means the point on the concentration scale where inhibition reaches its midpoint. What is called AC50 is the concentration at which the activity in the assay is half-maximal. Read a high AC50 as activity only at high concentration. For `Cc1cn2cc(NC(=O)c3ccc(N4CCC(N(C)C)C4)c4ccnnc34)cc(F)c2n1` (stereo not drawn) [Compound 134], the IC50 in the test with MYB mRNA lay in the range of 100 to 1000 nM; in the test with HTT mRNA [1], 1000 to 10000 nM; in the test with Target C mRNA, 1000 to 10000 nM; with HTT mRNA [2], 1000 to 10000 nM. Moreover, the results for the AC50 in the test on MYB mRNA and in the test with HTT mRNA [2] were 100 to 1000 nM and 1000 to 10000 nM, respectively.
For `Cc1cn2cc(NC(=O)c3ccc(N4CCC(N(C)C)CC4)c4ccnnc34)cc(F)c2n1` [Compound 137], the IC50 with MYB mRNA is below 100 nM; with HTT mRNA [1], 100 to 1000 nM; with Target C mRNA it was 100 to 1000 nM; in the test with HTT mRNA [2], 100 to 1000 nM. Moreover, the AC50 with MYB mRNA is below 100 nM; in the test on HTT mRNA [2], 100 to 1000 nM.
With `Cc1cn2cc(NC(=O)c3ccc(N4CCC(NC(C)(C)C)CC4)c4ccnnc34)cc(F)c2n1` [Compound 138], the IC50 in the test on MYB mRNA lay in the range of 100 to 1000 nM; in the test with HTT mRNA [1] it was 1000 to 10000 nM; with Target C mRNA, 1000 to 10000 nM; with HTT mRNA [2], 1000 to 10000 nM. Also, the AC50 with MYB mRNA lay in the range of 100 to 1000 nM; in the test with HTT mRNA [2] it was 1000 to 10000 nM.
`Cc1cn2cc(NC(=O)c3ccc(C4CCN(C)CC4)c4ccnnc34)cc(F)c2n1` [Compound 140]: the 50% inhibitory concentration (IC50) was 100 to 1000 nM in the test on MYB mRNA, 1000 to 10000 nM with HTT mRNA [1], above 10000 nM in the test on Target C mRNA and 1000 to 10000 nM with HTT mRNA [2]. Also, the AC50 with MYB mRNA was in the range of 100 to 1000 nM; in the test on HTT mRNA [2], 1000 to 10000 nM.
As to `CCN1CCC(c2ccc(C(=O)Nc3cc(F)c4nc(C)cn4c3)c3nnccc23)CC1` [Compound 141], the IC50 in the test with MYB mRNA is 100 to 1000 nM; with HTT mRNA [1], 1000 to 10000 nM; in the test on Target C mRNA, 1000 to 10000 nM; with HTT mRNA [2], 1000 to 10000 nM. Also, the AC50 in the test on MYB mRNA fell in the range of 100 to 1000 nM; with HTT mRNA [2], 1000 to 10000 nM.
As for `Cc1cn2cc(NC(=O)c3ccc(N4CCN[C@H](C)C4)c4ccnnc34)cc(F)c2n1` [Compound 146], the IC50 is below 100 nM in the test with MYB mRNA, 100 to 1000 nM in the test on HTT mRNA [1], above 10000 nM with Target C mRNA and 100 to 1000 nM with HTT mRNA [2]. Also, the AC50 in the test on MYB mRNA was below 100 nM; with HTT mRNA [2], 100 to 1000 nM.
`Cc1cn2cc(NC(=O)c3ccc(N4CCN(C)[C@H](C)C4)c4ccnnc34)cc(F)c2n1` [Compound 149]: the IC50 was below 100 nM in the test with MYB mRNA, 1000 to 10000 nM in the test with HTT mRNA [1], 1000 to 10000 nM in the test with Target C mRNA and 1000 to 10000 nM with HTT mRNA [2]. In addition, the AC50 in the test with MYB mRNA lay in the range of 100 to 1000 nM; in the test with HTT mRNA [2] it was 1000 to 10000 nM.
Consider `Cc1cn2cc(NC(=O)c3ccc(N4CCN(C)[C@@H](C)C4)c4ccnnc34)cc(F)c2n1` [Compound 150], for which the IC50 in the test with MYB mRNA lay in the range of 100 to 1000 nM; with HTT mRNA [1], 1000 to 10000 nM; in the test on Target C mRNA, 1000 to 10000 nM; in the test on HTT mRNA [2], 1000 to 10000 nM. For the same compound, the values for the AC50 with MYB mRNA and in the test on HTT mRNA [2] were 100 to 1000 nM and 1000 to 10000 nM, respectively.
Turning to `CC[C@@H]1CN(c2ccc(C(=O)Nc3cc(F)c4nc(C)cn4c3)c3nnccc23)CCN1` [Compound 151], the concentration for half-maximal inhibition (IC50) in the test with MYB mRNA was below 100 nM; with HTT mRNA [1] it was 1000 to 10000 nM; in the test with Target C mRNA, above 10000 nM; with HTT mRNA [2] it was 1000 to 10000 nM. In addition, the AC50 in the test on MYB mRNA is 100 to 1000 nM; in the test with HTT mRNA [2] it was 1000 to 10000 nM.
Regarding `CC[C@H]1CN(c2ccc(C(=O)Nc3cc(F)c4nc(C)cn4c3)c3nnccc23)CCN1` [Compound 152], the IC50 is 100 to 1000 nM in the test on MYB mRNA, 1000 to 10000 nM with HTT mRNA [1], above 10000 nM in the test on Target C mRNA and 1000 to 10000 nM with HTT mRNA [2]. Besides, the AC50 in the test on MYB mRNA lay within 100 to 1000 nM; in the test with HTT mRNA [2], 1000 to 10000 nM.
For `Cc1cn2cc(NC(=O)c3ccc(N4CCN5CCC[C@@H]5C4)c4ccnnc34)cc(F)c2n1` [Compound 153], the IC50 in the test on MYB mRNA is below 100 nM; in the test on HTT mRNA [1], 100 to 1000 nM; in the test with Target C mRNA it was 1000 to 10000 nM; in the test with HTT mRNA [2], 100 to 1000 nM. Moreover, the AC50 with MYB mRNA was below 100 nM; with HTT mRNA [2] it was 100 to 1000 nM.
For `Cc1cn2cc(NC(=O)c3ccc(N4CCN5CCC[C@H]5C4)c4ccnnc34)cc(F)c2n1` [Compound 154], the IC50 with MYB mRNA was in the range of 100 to 1000 nM; in the test with HTT mRNA [1], 1000 to 10000 nM; with Target C mRNA, 1000 to 10000 nM; with HTT mRNA [2] it was 1000 to 10000 nM. Further, the half-maximal activity concentration (AC50) in the test with MYB mRNA was in the range of 100 to 1000 nM; in the test on HTT mRNA [2], 1000 to 10000 nM.
As for `Cc1cn2cc(NC(=O)c3ccc(N4C[C@H]5C[C@@H]4C5N(C)C)c4ccnnc34)cc(F)c2n1` (stereo partly drawn) [Compound 155], the IC50 with MYB mRNA was 1000 to 10000 nM; in the test on HTT mRNA [1], above 10000 nM; with Target C mRNA, above 10000 nM; in the test on HTT mRNA [2], above 10000 nM. The figures for the AC50 in the test on MYB mRNA and with HTT mRNA [2] were 1000 to 10000 nM and above 10000 nM, respectively.

The values are drawn from patent US20240409536A1, “COMPOUNDS AND METHODS FOR MODULATING SPLICING” (REMIX THERAPEUTICS INC., priority 2021, published 2024).
